Reference: patent US10464963B2, “Compounds from invasive Salvinias and methods of using the same” (STEPHEN F. AUSTIN STATE UNIVERSITY, priority 2013, dated 2019)
Like-named read-outs stand apart in the source and are kept apart here.

Key:
[1] = tested on: human prostate cancer (PC-3); assay: Cytotoxicity assay (WST-8), PC-3; format: cell-based; conditions: Homo sapiens
Protocol: (§1) PANC-1 and MRC-5 was cultured in complete growth medium according to the ATCC protocols. Cells were grown at 37° C. and 5% CO2 in humidified air.
(§2) Cytotoxicity of total extracts of S. molesta was tested against PANC-1, A549, PC-3, and MRC-5. Cytotoxicity of the fractions was determined using A549 cells, a human non-small lung cancer cell line. Fractions were tested at 25, 50, and 100 μg/mL. The isolated pure compounds were tested in each of the cultured human tumor and normal cell lines at various concentrations between 1 and 100 μM with three replications. Human tumor and normal cells were inoculated into 96 well microtiter plates in 90 μL at plating densities ranging from 5,000 to 40,000 cells/well (measured by Z2 Coulter Counter of Beckman) depending on the doubling time of individual cell lines. Cell growth and viability was measured by WST-8 (Water Soluble Tetrazolium) assays following a standard protocol (Cell Counting Kit-8, Dojindo Molecular, Maryland). The WST-8 assay measured the relative activity of mitochondrial reductase enzymes in viable cells. A control WST reading (T0) before treatment was measured, then cells were continuously exposed to isolates for 48 h. After WST added and incubated for 2 h, the amount of formazan was measured by using a microplate spectrophotometer (μQuant spectrophotometer, Bio-Tek Instruments, Inc., Vermont) at 450 nm. TC or TD represents the readings of the untreated control or with tested compounds. Percent cell-growth (G) and percent cell-growth inhibition (GI) was calculated as: G=(TD−T0/TC−T0)×100; GI=[1−(TD−T0/TC−T0)]×100 for which TD≥T0; and G=(TD−T0/T0)×100; GI=[1−(TD−T0/T0)]×100 for which TD≤T0. […] Cancer drug doxorubicin was used as the positive controls in the cell-based assays.

[2] = tested on: normal human lung fibroblasts cells (MRC-5); assay: Cytotoxicity assay (WST-8), MRC-5; format: cell-based; conditions: for GI50: human, 48 h
Protocol: as §1, §2

[3] = Cytotoxicity assay (WST-8), MRC-5; format: cell-based, human; conditions: human
Protocol: as §1, §2

[4] = tested on: human breast cancer (MDA-MB-231); assay: cells; format: cell-based
Text: Human exocrine pancreatic cancer (PANC-1 and BxPC-3), non-small cell lung cancer (A549), prostate cancer (PC-3), breast cancer (MDA-MB-231), and leukemia (HL-60) were obtained from The University of Texas M. D. Anderson Cancer Center, Houston, Tex., and Normal human lung fibroblasts cells (MRC-5) was purchased from the American Type Culture Collection (ATCC). PC-3, A549 and HL-60 cells were maintained in RPMI 1640 medium supplemented with 10% (v/v) fetal bovine serum and antibiotics (1,000 units/mL penicillin-streptomycin solution, Hyclone). PANC-1 and MRC-5 was cultured in complete growth medium according to the ATCC protocols. Cells were grown at 37° C. and 5% CO2 in humidified air.
Cytotoxicity of total extracts of S. molesta was tested against PANC-1, A549, PC-3, and MRC-5. Cytotoxicity of the fractions was determined using A549 cells, a human non-small lung cancer cell line. Fractions were tested at 25, 50, and 100 μg/mL. The isolated pure compounds were tested in each of the cultured human tumor and normal cell lines at various concentrations between 1 and 100 μM with three replications. Human tumor and normal cells were inoculated into 96 well microtiter plates in 90 μL at plating densities ranging from 5,000 to 40,000 cells/well (measured by Z2 Coulter Counter of Beckman) depending on the doubling time of individual cell lines. Cell growth and viability was measured by WST-8 (Water Soluble Tetrazolium) assays following a standard protocol (Cell Counting Kit-8, Dojindo Molecular, Maryland). The WST-8 assay measured the relative activity of mitochondrial reductase enzymes in viable cells. A control WST reading (T0) before treatment was measured, then cells were continuously exposed to isolates for 48 h. After WST added and incubated for 2 h, the amount of formazan was measured by using a microplate spectrophotometer (μQuant spectrophotometer, Bio-Tek Instruments, Inc., Vermont) at 450 nm. TC or TD represents the readings of the untreated control or with tested compounds. Percent cell-growth (G) and percent cell-growth inhibition (GI) was calculated as: G=(TD−T0/TC−T0)×100; GI=[1−(TD−T0/TC−T0)]×100 for which TD≥T0; and G=(TD−T0/T0)×100; GI=[1−(TD−T0/T0)]×100 for which TD≤T0. To determine the inhibitory potency of active compounds (GI50, 50% cell-growth inhibition), tests were extended to additional concentrations (varying from 0.01 to 100 μM). Cancer drug doxorubicin was used as the positive controls in the cell-based assays.

[5] = tested on: human non-small cell lung cancer (A549); assay: Cytotoxicity assay (WST-8), A549; format: cell-based; conditions: Homo sapiens
Protocol: as §1, §2

human leukemia (HL-60) = assay: Cytotoxicity assay (WST-8), HL-60; format: cell-based; conditions: Homo sapiens
[6] = tested on: human exocrine pancreatic cancer (BxPC-3); assay: Cytotoxicity assay (WST-8), BxPC-3; format: cell-based; conditions: Homo sapiens
[7] = tested on: human exocrine pancreatic cancer (PANC-1); assay: Cytotoxicity assay (WST-8), PANC-1; format: cell-based; conditions: Homo sapiens
Protocol: as §1, §2

[8] = 48 h, read-out: Cytotoxic activity (GI50) PC-3
[9] = A549, 48 h, read-out: Cytotoxic activity (GI50) A549
[10] = A549, Table 1, read-out: Activity against human non-small cell lung tumor A549 (GI50) (converted)
[11] = HL-60, 48 h, read-out: Cytotoxic activity (GI50) HL-60
[12] = BXPC-3, 48 h, read-out: Cytotoxic activity (GI50) BxPC-3
[13] = BXPC-3, Table 1, read-out: Activity against human exocrine pancreatic tumor BxPC-3 (GI50) (converted)
[14] = PANC-1, 48 h, read-out: Cytotoxic activity (GI50) PANC-1
[15] = PANC-1, Table 1, read-out: Activity against human exocrine pancreatic tumor PANC-1 (GI50)
[16] = A549, Table 7, WST-8, 48 h exposure, mean ± S.D., read-out: Cytotoxic activity (GI50) A549
[17] = Table 1, read-out: Activity against human prostate tumor PC-3 (GI50) (converted)
[18] = HL-60, Table 1, read-out: Activity against human leukemia HL-60 (GI50) (converted)
[19] = Table 7, WST-8, 48 h exposure, mean ± S.D., read-out: Cytotoxic activity (GI50) PC-3
[20] = HL-60, Table 7, WST-8, 48 h exposure, mean ± S.D., read-out: Cytotoxic activity (GI50) HL-60
[21] = BXPC-3, Table 7, WST-8, 48 h exposure, mean ± S.D., read-out: Cytotoxic activity (GI50) BxPC-3
[22] = PANC-1, Table 7, WST-8, 48 h exposure, mean ± S.D., read-out: Cytotoxic activity (GI50) PANC-1

Row | Compound | GI50 [1, 8] [µM] | Toxicity against normal cell (in words) [2] | GI50 at 48 h [3] [µM] | GI50 ([4]; MDA-MB-231, 48 h, read-out: Cytotoxic activity (GI50) MDA-MB-231) [µM] | GI50 ([4]; MDA-MB-231, Table 1, read-out: Activity against human breast tumor MDA-MB-231 (GI50)) [µM] | GI50 [5, 9] [µM] | GI50 [5, 10] [µM] | GI50 (human leukemia (HL-60); [11]) [µM] | GI50 [6, 12] [µM] | GI50 [6, 13] [µM] | GI50 [7, 14] [µM] | GI50 [7, 15] [µM] | GI50 [5, 16] [µM] | GI50 [1, 17] [µM] | GI50 (human leukemia (HL-60); [18]) [µM] | GI50 [1, 19] [µM] | GI50 [2] [µM] | GI50 (human leukemia (HL-60); [20]) [µM] | GI50 [6, 21] [µM] | GI50 [7, 22] [µM]
1 | CC(C)c1cc2c(c(O)c1O)[C@@]1(C)CCCC(C)(C)C1=C(O)C2=O [Compound 7, 14-deoxycoleon U] | 8.39 ± 0.86 | no toxic against normal cell | 24.8 | > 100 | > 100 | 9.1 ± 2.47 | 9.1 | 13.3 ± 5.62 | 37.3 ± 7.44 | 37.3 | 22.6 ± 4.18 | 22.6 |  |  |  |  |  |  |  | 
2 | CC(C)c1cc2c(cc1O)[C@@]1(C)CCCC(C)(C)C1=CC2=O [Compound 9, 5,6-dehydrosugiol] | > 100 |  | > 100 |  |  | 84.5 ± 18.7 | 84.5 | 92.8 ± 9.98 | > 100 |  | > 100 |  |  |  |  |  |  |  |  | 
3 | COc1cc2c(cc1C(C)C)C(=O)C(O)=C1C(C)(C)CCC[C@@]12C [Compound 11, montbretyl 12-methyl ether] |  |  |  |  |  |  | 21.2 |  |  |  |  |  | 21.2 ± 6.21 |  |  |  |  |  |  | 
4 | CC(C)c1cc2c(c(O)c1O)[C@@]1(C)CCCC(C)(C)[C@@H]1CC2=O [Compound 12, 11-hydroxysugiol] | 41 ± 7.9 |  | 40.2 ± 0.91 |  |  | 35 ± 6.2 | 35 | 35.3 ± 0.63 | 45 ± 8.33 | 45 | 43.1 ± 8.32 | 43.1 |  | 41 | 35.3 |  |  |  |  | 
5 | CC(C)c1cc2c(cc1O)[C@@]1(C)CCCC(C)(C)[C@@H]1CC2=O [Compound 13, sugiol] |  |  |  |  |  |  |  |  |  |  |  |  | 79.8 ± 2.18 |  |  | > 100 | > 100 | 68.6 ± 13.5 | 36.1 ± 1.5 | 87.9 ± 11.2
6 | CC(C)c1cc2c(cc1O)[C@@]1(C)CCCC(C)(C)[C@@H]1CC2 [Compound 14, ferruginol] |  |  |  |  |  |  |  |  |  |  |  |  | 30.7 ± 5.22 |  |  | 56.5 ± 16.5 | 40 ± 7.74 | 27.3 ± 8.95 | 21.1 ± 0.51 | 41.1 ± 14.1
7 | CC(C)c1cc2c(cc1O)[C@@]1(C)CCCC(C)(C)C1CC2O (stereo partly shown) [Compound 15, 7-hydroxyferruginol] | 85.6 ± 5.3 |  | 70.5 ± 7.21 |  |  | 75.1 ± 7.04 | 75.1 | 75.2 ± 1.02 | 74.7 ± 11.1 | 74.7 | 78.2 ± 13.5 | 78.2 |  | 85.6 | 75.2 |  |  |  |  | 
